B1: Ruegeria pomeroyi DSS-3 DddW (DMSP lyase), N-terminally His-tagged, apo form (enzyme, UniProt Q5LW89 1-152, looked up)
chain: MTAMLDSFATDLTAATSLHQPGNLPHPPHAIDAENVPLSGGTDPTYGEVRWRTLINGTEAAPRDMVLGIAEFGPGHQLRPHRHTPPEFYLGLEGSGIVTIDGVPHEIRAGVALYIPGDAEHGTVAGPEGLRFAYGFASASFEAIEYRFTASA
notes: DddW, DMSP lyase of Ruegeria pomeroyi DSS-3 (locus SPO0453), 16.9 kDa without tag; No removal of the His10 tag is described; also called apo-DddW; SPO0453; source: E. coli BL21Star DE3 pLysS, purified (Ni-NTA), dialysed against EDTA to give apo-DddW

What was measured:
DddW [1] = biological target: T1, DddW (Ruegeria pomeroyi, UniProt Q5LW89, H83A); experiment: HPLC of acrylate product at […] nm, […] min end point; type: biochemical; conditions: 2 uM enzyme, 2 uM Fe(II), 10 mM DMSP, anaerobic
T1 construct: E. coli BL21Star DE3 pLysS; EDTA-treated apo enzyme loaded with metal; homodimer; cloning primers encode MTAMLDSF at the N-terminus and RFTASA at the C-terminus
T1 sequence (Q5LW89 whole entry H83A): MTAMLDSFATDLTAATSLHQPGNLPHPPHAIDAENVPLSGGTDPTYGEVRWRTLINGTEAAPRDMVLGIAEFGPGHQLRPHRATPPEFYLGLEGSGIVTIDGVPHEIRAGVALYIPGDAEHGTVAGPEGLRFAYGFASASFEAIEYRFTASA

DddW [2] = biological target: T2, DddW (Ruegeria pomeroyi, UniProt Q5LW89, E87A); experiment: HPLC of acrylate product at […] nm, […] min end point; type: biochemical; conditions: 2 uM enzyme, 2 uM Fe(II), 10 mM DMSP, anaerobic
T2 construct: E. coli BL21Star DE3 pLysS; EDTA-treated apo enzyme loaded with metal; homodimer; cloning primers encode MTAMLDSF at the N-terminus and RFTASA at the C-terminus
T2 sequence (Q5LW89 whole entry E87A): as the sequence (Q5LW89 whole entry H83A) above, with A83H, E87A counted along it

DddW [3] = biological target: T3, DddW (Ruegeria pomeroyi, UniProt Q5LW89, H81A); experiment: HPLC of acrylate product at […] nm, […] min end point; type: biochemical; conditions: 2 uM enzyme, 2 uM Fe(II), 10 mM DMSP, anaerobic
T3 construct: E. coli BL21Star DE3 pLysS; EDTA-treated apo enzyme loaded with metal; homodimer; cloning primers encode MTAMLDSF at the N-terminus and RFTASA at the C-terminus
T3 sequence (Q5LW89 whole entry H81A): as the sequence (Q5LW89 whole entry H83A) above, with H81A, A83H counted along it

DddW [4] = biological target: T4, DddW (Ruegeria pomeroyi, UniProt Q5LW89, H121A); experiment: HPLC of acrylate product at […] nm, […] min end point; type: biochemical; conditions: 2 uM enzyme, 2 uM Fe(II), 10 mM DMSP, anaerobic
T4 construct: E. coli BL21Star DE3 pLysS; EDTA-treated apo enzyme loaded with metal; homodimer; cloning primers encode MTAMLDSF at the N-terminus and RFTASA at the C-terminus
T4 sequence (Q5LW89 whole entry H121A): as the sequence (Q5LW89 whole entry H83A) above, with A83H, H121A counted along it

[5] = biological target: the molecule itself; experiment: SEC; as-isolated apo-DddW (19 mg/mL) on Superdex 200 16/600 in storage buffer (50 mM HEPES pH 7.5, 100 mM NaCl, 10% glycerol), 0.6 mL/min; mass by comparison with standards
purified protein = substrate: C[S+](C)CCC(=O)[O-]; experiment: purified protein; type: biochemical, Ruegeria pomeroyi; conditions: 2 uM apo-DddW with 2 uM Fe(II), pH 8.0, 50 mM HEPES, 20 mM NaCl, room temperature, anaerobic, DMSP 0.5-35 mM

Row | Molecule | no acrylate product formed (DddW [1]) | no acrylate product formed (DddW [2]) | no acrylate product formed (DddW [3]) | no acrylate product formed (DddW [4]) | stoichiometry N [5] | Km (purified protein) [mM] | kcat (purified protein) [s⁻¹]
1 | C[S+](C)CCC(=O)[O-] [DMSP] | none of the DddW mutants formed the acrylate product compared to the wild-type enzyme | none of the DddW mutants formed the acrylate product compared to the wild-type enzyme | none of the DddW mutants formed the acrylate product compared to the wild-type enzyme | none of the DddW mutants formed the acrylate product compared to the wild-type enzyme | – | – | –
2 | B1 | – | – | – | – | 2 | 8.68 ± 0.73 | 18.25

Reference: paper PMC4437653, “Biochemical, Kinetic, and Spectroscopic Characterization of Ruegeria pomeroyi DddW—A Mononuclear Iron-Dependent DMSP Lyase” (PLoS ONE, 2015)
